Data published in article PMC10046377, “Inhibitors of the Oncogenic PA2G4-MYCN Protein-Protein Interface” (Cancers, 2023).
pKd: −log10 of the molar value.

Biological target: T1, PA2G4 protein (Homo sapiens, UniProt Q9UQ80)
T1 sequence (Q9UQ80 1-394): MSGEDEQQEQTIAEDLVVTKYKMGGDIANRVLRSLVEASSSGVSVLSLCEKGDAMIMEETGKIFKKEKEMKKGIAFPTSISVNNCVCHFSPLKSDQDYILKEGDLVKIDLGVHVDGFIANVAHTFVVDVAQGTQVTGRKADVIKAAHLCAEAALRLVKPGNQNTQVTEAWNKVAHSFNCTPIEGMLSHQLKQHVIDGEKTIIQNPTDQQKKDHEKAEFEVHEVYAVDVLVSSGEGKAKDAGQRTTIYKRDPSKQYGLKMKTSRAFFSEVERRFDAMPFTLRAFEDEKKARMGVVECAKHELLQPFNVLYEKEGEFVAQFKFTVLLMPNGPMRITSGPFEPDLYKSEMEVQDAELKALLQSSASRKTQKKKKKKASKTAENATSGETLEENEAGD
Assay: Surface plasmon resonance binding to recombinant PA2G4
Design: PA2G4 protein construct was ordered from GenScript (Piscataway, NJ, USA) and cloned into a pET22b vector; host or cells: BL21 (DE3) E. coli
Conditions: SPR
Procedure: PA2G4 protein construct was ordered from GenScript (Piscataway, NJ, USA) and cloned into a pET22b vector. The construct was expressed in BL21 (DE3) E. coli, which was transformed by adding 2 μL of DNA, as per the Addgene Bacterial Transformation Protocol (Addgene, Cambridge, MA, USA). A total of 250 μL of transformed cells were grown in Luria-Bertani (LB) agar, containing 100 μg/mL of ampicillin, overnight at 37 °C. Starting cultures were created by inoculating 100 mL of LB with several bacterial culture colonies, followed by an overnight shaking incubation at 125 rpm and 37 °C. The overnight culture was added (10 mL/L) to 2 L flasks of LB and incubated at 125 rpm and 37 °C until log phase growth was reached (OD600 = 0.6). Following incubation, the cell line was centrifuged at 4200 rpm for 30 min in 1 L bottles. The cell pellet was then resuspended in 25 mL of phosphate-buffered saline (PBS) and centrifuged again at 4200 rpm for 30 min.
Cell pellets were resuspended in 25 mL of Ni-IMAC buffer A (100 mM Tris (pH 8.0), 0.5 M NaCl, 1 mM TCEP), filtered through 22–25 μm Miracloth, and placed on ice. Filtered cells were lysed using the EmulsiFlex-C5 High-Pressure homogenizer (Avestin, Ottawa, ON, Canada), followed by high-speed centrifugation at 18,000 rpm for 20 min. The supernatant, containing the soluble cell lysate, was loaded onto a 5 mL His-Trap column (GE Healthcare Life Sciences, Buckinghamshire, UK) equilibrated in Ni-IMAC buffer A. An incremental gradient of Ni-IMAC buffer B (100 mM Tris pH 8.0, 0.5 M NaCl, 1 mM TCEP, and 1 M imidazole) was introduced. Eluted fractions were analysed by SDS-PAGE and pooled accordingly. Each protein sample was then loaded onto a HiPrep 26/10 Desalting column (GE Healthcare Life Sciences, Buckinghamshire, UK) and equilibrated into anion exchange buffer A (100 mM Tris pH 8.0, 50 mM NaCl, 1 mM TCEP). Samples were loaded onto the column and eluted fractions were analysed by SDS-PAGE and pooled accordingly.
Protein was loaded onto a 5 mL HiTrap Q (Sephrose-Q) anion exchange column (GE Healthcare Life Sciences, Buckinghamshire, UK) and equilibrated in anion exchange buffer A. Samples were loaded, eluted in the flow-through, and analysed using SDS-PAGE. Samples were pooled and concentrated using 10 kDa MWCO Ultra-4 centrifugal filters (Merck, Macquarie Park, NSW, Australia) and intermittent centrifugation at 4000 rpm. Protein samples were then purified using Size Exclusion Chromatography (SEC). Each sample was concentrated to […] using MWCO Ultra-4 centrifugal filters, then loaded onto a Superdex 75 16/60 SEC column (GE Healthcare Life Sciences, Buckinghamshire, UK) and equilibrated in SEC buffer (25 mM Hepes pH 7.7, 100 mM NaCl, 1 mM TCEP). Samples were eluted, analysed by SDS-PAGE, and concentrated to 10 mg/mL using 10 kDa MWCO Ultra-4 centrifugal filters, with intermitted centrifugation at 4000 rpm.
Recombinant PA2G4 was buffer exchanged into PBS buffer using an overnight dialysis at 4 °C. Protein was concentrated to 0.5 mg/mL and incubated for 3 h on ice with a 20:1 molar excess of EZ-Link Sulfo-NHS-LC-Biotin (Thermo Scientific, Melbourne, VIC, Australia). Biotinylated protein samples were isolated from excess biotin using a Superdex 200 10/300 SEC column (GE Healthcare Life Sciences, Buckinghamshire, UK). All SPR experiments were performed on a Biacore T200 instrument (GE Healthcare Life Sciences, Uppsala, Sweden), at 25 °C, in the presence of HEPES Buffered Saline (HBS) (20 mM […] (pH 7.5) 137 mM NaCl, 2.7 mM KCl, and 0.05% Tween 20). Streptavidin was coupled to a CM5 chip (GE Healthcare Life Sciences, Buckinghamshire, UK) using amine coupling. Biotinylated protein samples were then capture-coupled to the streptavidin, with flow cell 1 blocked as a reference.
Compounds were dissolved in 100% DMSO and diluted to 10 mM. […]

[1] = Biacore T200, 25 °C, biotinylated PA2G4

pKd [1]	pKd (recombinant PA2G4)	Compound
4.87	4.87	Cc1cccc(Oc2cc(N3CCC(C(=O)N[C@@H](C)CCc4ccccc4)CC3)ncn2)c1C [#5338]
4.97	4.97	Cc1cccc(Oc2cc(N3CCC(C(=O)NCc4cccc(Br)c4)CC3)ncn2)c1C [#5333]
4.83	4.83	Cc1cccc(Oc2cc(N3CCC(C(=O)NCc4cccc(C(F)(F)F)c4)CC3)ncn2)c1C [#3567]
